This note sets out measurements from patent publication US11046699B2, “Pyrazolo-pyrimidin-amino-cycloalkyl compounds and their therapeutic uses” (RAPT THERAPEUTICS, INC., priority 2018, dated 2021).

Like-named read-outs stand apart in the source and are kept apart here. A value given as a limit tells only on which side of the number the result lay.

The test concerns the target GCN2 (Homo sapiens, UniProt Q9P2K8). Kind of test: GCN2 enzymatic endpoint assay: phosphorylation of GFP-eIF2α measured by TR-FRET (Lanthascreen). The class given is biochemical. The gist of the method:
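Phosphorylated eIF2α read by Lanthascreen TR-FRET (acceptor 520 nm over donor 495 nm) after EDTA stop. The reaction ran 90 min at room temperature on 80 nM GFP-eIF2α with 2 μM ATP.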

Setting [1] is: tested as described in Example 77, compound and/or hydrochloride, dihydrochloride or trifluoroacetic acid salt, read-out: IC 50 Activity.
[2] abbreviates: GCN2 biochemical IC50, 4 nM GCN2, 2 μM ATP, 80 nM GFP-eIF2α, 90 min RT, read-out: GCN2 activity.

GCN2, sequence (Q9P2K8 whole entry): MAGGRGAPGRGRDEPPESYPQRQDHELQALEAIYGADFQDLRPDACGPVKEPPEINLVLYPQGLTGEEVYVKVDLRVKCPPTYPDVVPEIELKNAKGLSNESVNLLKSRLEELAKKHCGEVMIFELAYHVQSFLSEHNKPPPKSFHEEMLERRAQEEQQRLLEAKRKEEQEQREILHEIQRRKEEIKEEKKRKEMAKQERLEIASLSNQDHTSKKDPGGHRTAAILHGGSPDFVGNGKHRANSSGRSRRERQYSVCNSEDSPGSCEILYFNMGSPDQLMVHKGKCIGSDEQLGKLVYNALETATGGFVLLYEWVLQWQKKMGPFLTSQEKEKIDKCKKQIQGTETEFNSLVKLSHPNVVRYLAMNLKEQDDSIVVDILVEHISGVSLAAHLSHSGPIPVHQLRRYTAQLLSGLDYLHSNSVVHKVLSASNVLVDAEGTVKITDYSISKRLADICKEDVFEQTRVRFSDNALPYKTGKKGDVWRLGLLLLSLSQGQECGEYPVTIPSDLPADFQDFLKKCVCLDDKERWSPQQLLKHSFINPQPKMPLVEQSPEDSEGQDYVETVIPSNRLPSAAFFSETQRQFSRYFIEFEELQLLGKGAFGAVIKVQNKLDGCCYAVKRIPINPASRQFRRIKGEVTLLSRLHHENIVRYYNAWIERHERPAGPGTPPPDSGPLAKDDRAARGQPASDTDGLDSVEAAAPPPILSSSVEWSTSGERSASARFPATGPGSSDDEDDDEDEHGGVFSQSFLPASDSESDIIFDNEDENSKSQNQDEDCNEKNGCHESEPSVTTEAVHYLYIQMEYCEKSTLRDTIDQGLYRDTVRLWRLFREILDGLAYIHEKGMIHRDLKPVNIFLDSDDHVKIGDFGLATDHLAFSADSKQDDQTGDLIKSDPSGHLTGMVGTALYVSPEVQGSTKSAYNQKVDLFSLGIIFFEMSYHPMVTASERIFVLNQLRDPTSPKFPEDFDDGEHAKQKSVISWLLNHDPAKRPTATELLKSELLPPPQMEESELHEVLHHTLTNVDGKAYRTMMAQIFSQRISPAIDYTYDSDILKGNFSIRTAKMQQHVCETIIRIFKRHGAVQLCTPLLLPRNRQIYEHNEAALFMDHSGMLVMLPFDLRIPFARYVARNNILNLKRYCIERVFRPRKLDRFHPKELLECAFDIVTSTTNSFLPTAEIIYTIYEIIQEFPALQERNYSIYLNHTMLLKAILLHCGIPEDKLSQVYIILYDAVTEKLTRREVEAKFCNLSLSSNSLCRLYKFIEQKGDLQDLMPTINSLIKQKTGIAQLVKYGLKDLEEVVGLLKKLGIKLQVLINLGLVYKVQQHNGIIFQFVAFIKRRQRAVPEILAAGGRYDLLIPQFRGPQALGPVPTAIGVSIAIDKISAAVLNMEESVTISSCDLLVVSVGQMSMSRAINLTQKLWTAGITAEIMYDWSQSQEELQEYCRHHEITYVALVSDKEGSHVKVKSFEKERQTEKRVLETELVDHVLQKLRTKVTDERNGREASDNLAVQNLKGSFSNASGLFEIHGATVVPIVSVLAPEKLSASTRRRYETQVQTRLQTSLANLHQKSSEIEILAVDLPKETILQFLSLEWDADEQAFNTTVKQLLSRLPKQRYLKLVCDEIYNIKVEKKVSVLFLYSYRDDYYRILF

With `COCCNC(=O)[C@@H]1CC[C@@H](Nc2ncc3c(Br)nn(-c4ccc5cccnc5c4)c3n2)C1` [(1R,3R)-3-((3-bromo-1-(quinolin-7-yl)-1H-pyrazolo[3,4-d]pyrimidin-6-yl)amino)-N-(2-methoxyethyl)cyclopentane-1-carboxamide], under setting [1], the IC50 lay in the range of 200 to 500 nM.

On to `CNC(=O)[C@]1(C)CC[C@@H](Nc2ncc3c(Br)nn(-c4ccc5ncnn5c4)c3n2)C1` [(1R,3R)-3-[[3-bromo-1-([1,2,4]triazolo[1,5-a]pyridin-6-yl)pyrazolo[3,4-d]pyrimidin-6-yl]amino]-N,1-dimethyl-cyclopentane-carboxamide], for which the IC50 under setting [1] was in the range of 25 to 200 nM.

On to `Cc1nnc(-c2ccc(-n3nc(Br)c4cnc(N[C@@H]5CC[C@@](C)(C(=O)NCC(F)F)C5)nc43)cc2CCC#N)s1` [(1R,3R)-3-[[3-bromo-1-[3-(2-cyanoethyl)-4-(5-methyl-1,3,4-thiadiazol-2-yl)phenyl]pyrazolo[3,4-d]pyrimidin-6-yl]amino]-N-(2,2-difluoroethyl)-1-methyl-cyclopentanecarboxamide], for which the IC50 under setting [1] lay within 25 to 200 nM.

Turning to `CNC(=O)[C@]1(C)CC[C@@H](Nc2ncc3c(Br)nn(-c4ccc5nc(N6CCN(C)CC6)ncc5c4)c3n2)C1` [(1R,3R)-3-[[3-bromo-1-[2-(4-methylpiperazin-1-yl)quinazolin-6-yl]pyrazolo[3,4-d]pyrimidin-6-yl]amino]-N,1-dimethyl-cyclo-pentanecarboxamide; 2,2,2-trifluoroacetic acid], the IC50 under setting [1] was 25 to 200 nM.

With `CNC(=O)[C@]1(C)CC[C@@H](Nc2ncc3c(Br)nn(-c4cc(Cl)cc(NC(=O)C5CNC5)c4)c3n2)C1` [N-[3-[3-bromo-6-[[(1R,3R)-3-methyl-3-(methylcarbamoyl)cyclopentyl]amino]pyrazolo[3,4-d]pyrimidin-1-yl]-5-chloro-phenyl]azetidine-3-carboxamide], the IC50 under setting [1] is 25 to 200 nM.

On to `O=C(N[C@H]1CCOC1)[C@@H]1CC[C@@H](Nc2ncc3c(Br)nn(-c4ccc5ncccc5c4)c3n2)C1` [(1R,3R)-3-((3-bromo-1-(quinolin-6-yl)-1H-pyrazolo[3,4-d]pyrimidin-6-yl)amino)-N-((S)-tetrahydrofuran-3-yl)cyclopentane-1-carboxamide], for which the IC50 under setting [1] is 25 to 200 nM.

For `C[C@@]1(C(=O)N2CCN3C(=O)COCC3C2)CC[C@@H](Nc2ncc3c(Br)nn(-c4cc(F)c5ncccc5c4)c3n2)C1` (stereo partly drawn) [8-[(1R,3R)-3-[[3-bromo-1-(8-fluoro-6-quinolyl)pyrazolo[3,4-d]pyrimidin-6-yl]amino]-1-methyl-cyclopentane-carbonyl]-6,7,9,9a-tetrahydro-1H-pyrazino[2,1-c][1,4]oxazin-4-one], the IC50 under setting [1] fell in the range of 25 to 200 nM.

As to `CC[C@@]1(C(=O)NC)CC[C@@H](Nc2ncc3c(I)nn(-c4cc(F)c5ncccc5c4)c3n2)C1` [(1R,3R)-1-ethyl-3-[[1-(8-fluoro-6-quinolyl)-3-iodo-pyrazolo[3,4-d]pyrimidin-6-yl]amino]-N-methyl-cyclopentanecarboxamide], the IC50 under setting [1] is less than 25 nM.

For the molecule `CNC(=O)[C@]1(C)CC[C@@H](Nc2ncc3c(Br)nn(-c4cc(CCC(=O)O)c5ncccc5c4)c3n2)C1` [3-[6-[3-bromo-6-[[(1R,3R)-3-methyl-3-(methylcarbamoyl)cyclopentyl]amino]pyrazolo[3,4-d]pyrimidin-1-yl]-8-quinolyl]propanoic acid], the IC50 under setting [1] is less than 25 nM.

Regarding `CNC(=O)C1(C)CC[C@@H](Nc2ncc3c(Br)nn(-c4ccc5nc(OC)ccc5c4)c3n2)C1` (stereo partly drawn) [(3R)-3-((3-bromo-1-(2-methoxyquinolin-6-yl)-1H-pyrazolo[3,4-d]pyrimidin-6-yl)amino)-N,1-dimethylcyclopentane-1-carboxamide], the IC50 under setting [1] was in the range of 25 to 200 nM.

As to `Cc1nnc(-c2ccc(-n3nc(Br)c4cnc(N[C@@H]5CC[C@@](C)(C(=O)NC6CC6)C5)nc43)cc2CCC#N)s1` [(1R,3R)-3-[[3-bromo-1-[3-(2-cyanoethyl)-4-(5-methyl-1,3,4-thiadiazol-2-yl)phenyl]pyrazolo[3,4-d]pyrimidin-6-yl]amino]-N-cyclopropyl-1-methyl-cyclopentane-carboxamide], the IC50 under setting [1] lay in the range of 25 to 200 nM.

`CNC(=O)[C@]1(C)CC[C@@H](Nc2ncc3c(Br)nn(-c4ccc(-c5nccs5)cc4)c3n2)C1` [(1R,3R)-3-[[3-bromo-1-(4-thiazol-2-ylphenyl)pyrazolo[3,4-d]pyrimidin-6-yl]amino]-N,1-dimethyl-cyclopentane-carboxamide]: under setting [1], the IC50 lay within 25 to 200 nM.

Consider `COCCNC(=O)[C@@H]1CC[C@@H](Nc2ncc3c(Br)nn(-c4cc(Cl)c5ncccc5c4)c3n2)C1` [(1R,3R)-3-((3-bromo-1-(8-chloroquinolin-6-yl)-1H-pyrazolo[3,4-d]pyrimidin-6-yl)amino)-N-(2-methoxyethyl)cyclopentane-1-carboxamide], for which the IC50 under setting [1] lay within 25 to 200 nM.

Consider `Cc1ccc2cc(-n3nc(Br)c4cnc(N[C@@H]5CC[C@@H](P(C)(C)=O)C5)nc43)cc(CCO)c2n1` [2-[6-[3-bromo-6-[[(1R,3R)-3-dimethyl-phosphorylcyclopentyl]amino]pyrazolo [3,4-d]pyrimidin-1-yl]-2-methyl-8-quinolyl]ethanol], for which the IC50 under setting [1] fell in the range of 25 to 200 nM.

For `CNC(=O)[C@]1(C)CC[C@@H](Nc2ncc3c(Br)nn(-c4cc(C(C)O)c5nccnc5c4)c3n2)C1` (stereo partly drawn) [(1R,3R)-3-[[3-bromo-1-[8-(1-hydroxy-ethyl)quinoxalin-6-yl]pyrazolo[3,4-d]pyrimidin-6-yl]amino]-N,1-dimethyl-cyclopentanecarboxamide], the IC50 under setting [1] was 25 to 200 nM.

As to `CNC(=O)[C@]1(C)CC[C@@H](Nc2ncc3c(Br)nn(-c4cc(Cl)cc(CN=S(C)(=O)O)c4)c3n2)C1`, the IC50 under setting [1] lay within 25 to 200 nM.

For the molecule `CNC(=O)[C@]1(C)CC[C@@H](Nc2ncc3c(Br)nn(-c4cccc(NC(=O)c5cnccn5)c4)c3n2)C1` [Example 54, N-(3-(3-bromo-6-(((1R,3R)-3-methyl-3-(methylcarbamoyl)cyclopentyl)amino)-1H-pyrazolo[3,4-d]pyrimidin-1-yl)phenyl)pyrazine-2-carboxamide], the IC50 under setting [2] lay in the range of 25 to 200 nM.

Turning to `N#Cc1cc(-n2nc(Br)c3cnc(N[C@@H]4CC[C@@H](C(=O)NC[C@@H]5COCCN5)C4)nc32)cc2cccnc12` [(1R,3R)-3-((3-bromo-1-(8-cyanoquinolin-6-yl)-1H-pyrazolo[3,4-d]pyrimidin-6-yl)amino)-N-(((R)-morpholin-3-yl)methyl)cyclopentane-1-carboxamide], under setting [1], the IC50 is less than 25 nM.

On to `CNC(=O)[C@]1(C)CC[C@@H](Nc2ncc3c(Br)nn(-c4ccc(-c5ncco5)c([C@H](C)CN)c4)c3n2)C1` [(1R,3R)-3-[[1-[3-[(1S)-2-amino-1-methyl-ethyl]-4-oxazol-2-yl-phenyl]-3-bromo-pyrazolo[3,4-d]pyrimidin-6-yl]amino]-N,1-dimethyl-cyclopentanecarboxamide], for which the IC50 under setting [1] was in the range of 25 to 200 nM.

`Cc1nnc(-c2ccc(-n3nc(Br)c4cnc(N[C@@H]5CC[C@@](C)(C(=O)N6CCNC(=O)C6)C5)nc43)cc2)o1` [4-[(1R,3R)-3-[[3-bromo-1-[4-(5-methyl-1,3,4-oxadiazol-2-yl)phenyl]pyrazolo [3,4-d]pyrimidin-6-yl]amino]-1-methyl-cyclopentanecarbonyl]piperazin-2-one]: the IC50 under setting [1] lay within 25 to 200 nM.

Take `CNC(=O)C1(C)CC[C@@H](Nc2ncc3c(Br)nn(-c4cc(F)cc(CO)c4)c3n2)C1` (stereo partly drawn) [(3R)-3-[[3-bromo-1-[3-fluoro-5-(hydroxymethyl)phenyl]pyrazolo[3,4-d]pyrimidin-6-yl]amino]-N,1-dimethyl-cyclopentanecarboxamide]: the IC50 under setting [1] was in the range of 25 to 200 nM.

Turning to `CNC(=O)[C@]1(C)CC[C@@H](Nc2ncc3c(Br)nn(-c4cc(Cl)cc(C(=O)NC5CNC5)c4)c3n2)C1` [N-(azetidin-3-yl)-3-[3-bromo-6-[[(1R,3R)-3-methyl-3-(methylcarbamoyl)cyclopentyl]amino]pyrazolo[3,4-d]pyrimidin-1-yl]-5-chloro-benzamide], the IC50 under setting [1] lay within 25 to 200 nM.

For `Cc1nnc(-c2ccc(-n3nc(Br)c4cnc(N[C@@H]5CCC(S(=O)(=O)NCCC#N)C5)nc43)cc2)s1` (some centres unmarked), the IC50 under setting [1] is 25 to 200 nM.

Consider `CNC(=O)[C@]1(C)CC[C@@H](Nc2ncc3c(Br)nn(-c4ccc(-c5ncco5)c([C@@H]5CCNC5)c4)c3n2)C1` [(1R,3R)-3-[[3-bromo-1-[4-oxazol-2-yl-3-[(3S)-pyrrolidin-3-yl]phenyl]pyrazolo[3,4-d]pyrimidin-6-yl]amino]-N,1-dimethyl-cyclopentanecarboxamide], for which the IC50 under setting [1] is less than 25 nM.

Consider `Cc1nnc(-c2ccc(-n3nc(Br)c4cnc(N[C@@H]5CC[C@@](C)(C#N)C5)nc43)cc2)s1`, for which the IC50 under setting [1] fell in the range of 25 to 200 nM.

Regarding `CNC(=O)[C@]1(C)CC[C@@H](Nc2ncc3c(Br)nn(-c4cc(Cl)c(F)c(CS(C)(=O)=O)c4)c3n2)C1`, under setting [1], the IC50 lay within 25 to 200 nM.

Regarding `CNC(=O)[C@]1(C)CC[C@@H](Nc2ncc3c(Br)nn(-c4ccc(-c5ncco5)c(CC(=O)N(C)C)c4)c3n2)C1` [(1R,3R)-3-[[3-bromo-1-[3-[2-(dimethylamino)-2-oxo-ethyl]-4-oxazol-2-yl-phenyl]pyrazolo [3,4-d]pyrimidin-6-yl]amino]-N,1-dimethyl-cyclopentanecarboxamide], under setting [1], the IC50 was 25 to 200 nM.

Turning to `CNC(=O)[C@]1(C)CC[C@@H](Nc2ncc3c(Br)nn(-c4ccc(-c5ncco5)c(CCN(C)C)c4)c3n2)C1` [Example 62, (1R,3R)-3-((3-bromo-1-(3-(2-(dimethylamino)ethyl)-4-(oxazol-2-yl)phenyl)-1H-pyrazolo[3,4-d]pyrimidin-6-yl)amino)-N,1-dimethylcyclopentane-1-carboxamide; 2,2,2-trifluoroacetic acid], under setting [2], the IC50 was in the range of 25 to 200 nM.

Take `COCCO[C@H]1C[C@H](Nc2ncc3c(Br)nn(-c4ccc5ncccc5c4)c3n2)C1` [Example 4, 3-bromo-N-((1r,3r)-3-(2-methoxyethoxy)cyclobutyl)-1-(quinolin-6-yl)-1H-pyrazolo[3,4-d]pyrimidin-6-amine]: the IC50 under setting [2] fell in the range of 25 to 200 nM.
